Test results reported in patent US8309546B2, “Morpholinopurine derivatives” (Daiichi Sankyo Company, Limited, priority 2008, dated 2012).
pIC50: −log10 of the molar value.

Assays:
[1] = tested on: human colon cancer cell strain HT29; test: Cell growth inhibition test (MTT), HT29; type: cell-based; details: HT-29, 72 h, HT29, 3 days culture, read-out: concentration exhibiting anti-cell effect (GI50)
Description: (§1) After a cultured cancer cell strain was treated with a test compound for a predetermined period, a cell growth inhibition test was performed by measuring the living cell count by the 3-(4,5-dimethylthiazol-2-yl)-2,5-diphenyltetrazoliumbromide (MTT) method.
(§2) Human endometrial cancer cell strain AN3CA, human ovary cancer cell strain IGROV1, and human colon cancer cell strain HT29 were seeded in a 96-well plate at 5000, 1000, and 5000 cells, respectively, per well. On the following day of seeding, a test compound having a predetermined concentration was added and the culture was continued at 37° C. in 5% CO2 for 3 days. On the final day of culture, an MTT reaction solution was added and the resulting mixture was reacted for 4 hours to form formazan by dehydrogenases contained in living cells. Subsequently, the culture broth was removed, DMSO was added to solubilize formazan, and the amount of produced formazan was determined by measuring absorbance at 540 nm using a microplate reader.
(§3) Since correlations of the amount of produced formazan and the living cell count had been confirmed, the cell growth rate was calculated by the following formula. Cell growth rate (T/C %) after addition of test compound=100×[(B−C)/(A−C)] A: Absorbance of well not containing test compound (final culture day) B: Absorbance of well containing test compound (final culture day) C: Absorbance of well immediately before addition of test compound (following day of cell seeding)
(§4) Furthermore, the cell growth rate at each concentration of serially diluted test compound solutions was obtained, and the concentration of the test compound resulting in a 50% growth rate was obtained as the GI50 value from two concentrations including 50% therebetween and the growth rates were selected.

[2] = tested on: human endometrial cancer cell strain AN3CA; test: Cell growth inhibition test (MTT), AN3CA; type: cell-based; details: AN3-CA, 72 h, 3 days culture, read-out: concentration exhibiting anti-cell effect (GI50)
Description: as §1, §2, §3, §4

PI3Kα = PI3Kα (Homo sapiens, UniProt P42336); test: PI3K kinase activity inhibition assay; type: biochemical; details: Kinase-Glo Plus ATP detection, read-out: IC50 against PI3K
Sequence of PI3Kα (P42336 whole entry, species assumed): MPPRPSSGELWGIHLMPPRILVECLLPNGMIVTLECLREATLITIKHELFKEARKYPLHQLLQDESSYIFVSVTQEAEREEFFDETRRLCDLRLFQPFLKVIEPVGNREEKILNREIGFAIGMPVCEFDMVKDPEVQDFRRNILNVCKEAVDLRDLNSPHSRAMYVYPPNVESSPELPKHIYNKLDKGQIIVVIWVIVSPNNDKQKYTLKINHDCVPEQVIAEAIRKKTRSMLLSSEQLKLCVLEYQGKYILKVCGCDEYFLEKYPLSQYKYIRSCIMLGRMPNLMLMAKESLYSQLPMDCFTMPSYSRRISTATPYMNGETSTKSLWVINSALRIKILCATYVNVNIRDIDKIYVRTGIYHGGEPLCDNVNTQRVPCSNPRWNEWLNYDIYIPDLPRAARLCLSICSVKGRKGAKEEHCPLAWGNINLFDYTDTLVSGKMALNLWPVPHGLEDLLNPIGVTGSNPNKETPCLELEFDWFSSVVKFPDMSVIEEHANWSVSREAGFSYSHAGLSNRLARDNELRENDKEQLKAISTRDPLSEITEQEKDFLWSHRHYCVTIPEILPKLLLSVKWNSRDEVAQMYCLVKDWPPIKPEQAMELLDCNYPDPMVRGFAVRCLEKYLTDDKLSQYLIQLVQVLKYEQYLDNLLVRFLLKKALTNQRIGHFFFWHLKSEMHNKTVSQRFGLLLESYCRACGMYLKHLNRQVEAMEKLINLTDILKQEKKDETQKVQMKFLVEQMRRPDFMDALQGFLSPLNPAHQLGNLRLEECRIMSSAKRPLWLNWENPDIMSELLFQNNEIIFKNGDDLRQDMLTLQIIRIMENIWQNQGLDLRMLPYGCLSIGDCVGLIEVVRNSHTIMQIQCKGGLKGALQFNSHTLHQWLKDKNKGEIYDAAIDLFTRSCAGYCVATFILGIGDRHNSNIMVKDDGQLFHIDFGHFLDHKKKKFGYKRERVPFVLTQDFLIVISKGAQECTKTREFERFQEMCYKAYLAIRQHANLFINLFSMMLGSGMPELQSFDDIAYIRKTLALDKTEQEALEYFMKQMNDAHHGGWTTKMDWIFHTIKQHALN
Sequence of PI3Kα (P27986 whole entry partner, species assumed): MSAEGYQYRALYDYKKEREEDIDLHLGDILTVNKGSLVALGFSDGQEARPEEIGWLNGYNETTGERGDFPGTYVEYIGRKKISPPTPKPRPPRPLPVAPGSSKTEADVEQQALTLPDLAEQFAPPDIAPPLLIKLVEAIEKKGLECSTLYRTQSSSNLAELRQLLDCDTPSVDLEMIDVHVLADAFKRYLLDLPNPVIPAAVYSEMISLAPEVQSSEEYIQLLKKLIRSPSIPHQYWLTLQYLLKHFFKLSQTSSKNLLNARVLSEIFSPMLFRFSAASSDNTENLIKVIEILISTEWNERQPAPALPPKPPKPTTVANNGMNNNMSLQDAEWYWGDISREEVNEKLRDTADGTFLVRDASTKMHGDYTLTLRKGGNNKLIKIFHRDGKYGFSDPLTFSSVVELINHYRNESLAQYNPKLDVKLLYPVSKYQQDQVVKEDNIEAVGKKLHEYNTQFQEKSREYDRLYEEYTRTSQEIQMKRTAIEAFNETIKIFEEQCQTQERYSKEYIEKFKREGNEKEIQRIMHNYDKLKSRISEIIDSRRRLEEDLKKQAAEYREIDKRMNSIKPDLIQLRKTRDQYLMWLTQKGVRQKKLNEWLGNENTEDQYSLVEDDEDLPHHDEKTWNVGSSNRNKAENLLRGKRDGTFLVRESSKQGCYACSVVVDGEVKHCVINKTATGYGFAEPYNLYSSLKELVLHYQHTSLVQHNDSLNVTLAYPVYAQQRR
Description: PI3Kα kinase activity was determined in the presence and absence of a test compound. The test compound was dissolved in DMSO and diluted serially with an ATP solution (30 μm ATP, 50 mM HEPES, pH 7.4, 50 mM NaCl, 0.05% CHAPS, 10 mM MgCl2, and 5 mM dithiothreitol [DTT]). First, 7 μl each of the serially diluted test compound solutions was added to each well of a black 384-well plate. Subsequently, 7 μl of a phosphatidylinositol 4,5-bisphosphate (PIP2) solution (45 μm PIP2, 50 mM HEPES, pH 7.4, 50 mM NaCl, 0.05% CHAPS, 10 mM MgCl2, and 5 mM DTT) was added to each well of the 384-well plate. Finally, 7 μl of a solution containing PI3Kα (50 nM PI3Kα, 50 mM HEPES, pH 7.4, 50 mM NaCl, 0.05% CHAPS, 10 mM MgCl2, and 5 mM DTT) was added to each well of the 384-well plate to initiate a reaction. The mixture was reacted at room temperature for 2 hours and then 21 μl of the Kinase-Glo Plusreagent (Promega) was, added to each well of the 384-well plate to terminate the reaction. After the termination of the reaction, the solution was left standing for 15 minutes and then luminescence was measured with ARVO (PerkinElmer Co., Ltd.) to detect ATP remaining in the reaction solution.
The amount of ATP consumed in the reaction was obtained for each well and used as an indicator of PI3Kαkinase activity. The PI3Kα kinase activity in wells not containing the test compound was calculated by the following formula (1). Furthermore, the PI3Kα kinase activity in wells containing the test compound was calculated by the following formula (2). The PI3Kα inhibitory activity (%) of the test compound was calculated by the following formula (3). PI3Kα kinase activity in wells not containing the test compound=B−C (1) PI3Kα kinase activity in wells containing the test compound=B−P (2) PI3Kα inhibitory activity (%) of test compound=100−100×[(B−P)/(B−C)] (3) B: Measured value in wells not containing PI3Kα or the test compound C: Measured value in wells containing PI3Kα and not containing the test compound P: Measured value in wells containing PI3Kα and the test compound
Furthermore, an optimal curve was calculated with Graph Pad Prism 4 using concentrations of the serially diluted test compound solutions and PI3Kα inhibitory activity (%) at each concentration to obtain the concentration showing 50% inhibition as the IC50 value of PI3Kα inhibitory activity.

[3] = tested on: human ovary cancer cell strain IGROV1; test: Cell growth inhibition test (MTT), IGROV1; type: cell-based; details: IGROV-1, 72 h, IGROV1, 3 days culture, read-out: concentration exhibiting anti-cell effect (GI50)
Description: as §1, §2, §3, §4

[4] = molecular target: T1, human mTOR (His-tagged mTOR (1362C)) (Homo sapiens, UniProt P42345); test: mTOR kinase activity inhibition assay; type: biochemical; details: HTRF, read-out: IC50 against mTOR
T1 construct: the 1362 to 2549 amino acid portion on the C terminus side of human mTOR; His tag (N); made in house
T1 sequence (P42345 1362-2549): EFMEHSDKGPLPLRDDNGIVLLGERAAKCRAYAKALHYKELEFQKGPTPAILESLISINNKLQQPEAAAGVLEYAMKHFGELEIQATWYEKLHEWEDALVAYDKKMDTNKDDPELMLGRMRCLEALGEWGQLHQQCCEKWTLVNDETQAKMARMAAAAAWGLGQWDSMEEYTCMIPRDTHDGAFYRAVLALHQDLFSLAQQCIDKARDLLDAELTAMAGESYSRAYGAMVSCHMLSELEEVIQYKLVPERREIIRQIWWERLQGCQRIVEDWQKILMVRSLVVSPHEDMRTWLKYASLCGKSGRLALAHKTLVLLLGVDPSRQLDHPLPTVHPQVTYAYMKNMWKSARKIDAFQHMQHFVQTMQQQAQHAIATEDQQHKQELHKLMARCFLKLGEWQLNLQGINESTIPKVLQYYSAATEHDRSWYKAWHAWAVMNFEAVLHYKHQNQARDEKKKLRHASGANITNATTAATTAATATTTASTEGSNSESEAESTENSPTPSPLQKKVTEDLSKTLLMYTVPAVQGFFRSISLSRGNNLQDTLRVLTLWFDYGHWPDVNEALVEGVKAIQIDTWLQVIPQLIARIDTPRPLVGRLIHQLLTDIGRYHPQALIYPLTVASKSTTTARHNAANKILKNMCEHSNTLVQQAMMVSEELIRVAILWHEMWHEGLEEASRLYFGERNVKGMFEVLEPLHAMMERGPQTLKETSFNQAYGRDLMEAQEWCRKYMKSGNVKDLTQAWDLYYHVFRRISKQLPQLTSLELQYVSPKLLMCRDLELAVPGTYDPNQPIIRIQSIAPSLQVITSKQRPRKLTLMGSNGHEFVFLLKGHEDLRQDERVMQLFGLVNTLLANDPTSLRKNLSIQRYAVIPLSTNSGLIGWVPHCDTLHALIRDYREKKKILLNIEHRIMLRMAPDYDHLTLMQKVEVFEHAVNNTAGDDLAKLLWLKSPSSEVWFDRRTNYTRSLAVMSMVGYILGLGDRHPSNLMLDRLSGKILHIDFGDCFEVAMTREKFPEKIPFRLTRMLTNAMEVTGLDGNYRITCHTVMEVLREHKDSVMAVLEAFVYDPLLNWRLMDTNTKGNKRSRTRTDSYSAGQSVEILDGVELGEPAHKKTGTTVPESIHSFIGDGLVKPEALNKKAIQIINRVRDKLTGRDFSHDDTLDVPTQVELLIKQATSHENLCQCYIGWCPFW
Description: The mTOR kinase activity was determined in the presence and absence of a test compound. A substrate peptide is phosphorylated by mTOR kinase activity. A complex of streptavidin-XL665 and anti-phosphorylated S6K (Thr389) antibody-anti-mouse IgG-cryptate binds to this phosphorylated peptide. At this time, irradiation of excitation light induces transfer of fluorescence resonance energy from the excited cryptate to XL665, emitting fluorescence at 665 nm. Utilizing this principle, mTOR kinase activity was detected. When the mTOR inhibitor is present, phosphorylation of a substrate peptide is inhibited, and the biding of the above-mentioned complex to the substrate peptide is inhibited.
A His tag was introduced into the N terminus end of the 1362 to 2549 amino acid portion on the C terminus side of human mTOR, and a cell line was prepared, so that His-tagged mTOR should be constantly expressed in a HEK293 cell. A cell lysate was prepared from this HEK293 cell which constantly expressed His-tagged mTOR (1362C), and a crude product of His-tagged mTOR (1362C) was obtained by a usual method utilizing His tag.
Subsequently, an mTOR enzyme solution was prepared which contained the above-mentioned His-tagged mTOR (1362C) enzyme and 8 μg/ml biotinylated peptide (Biotin-Ahx-[…]-amide [Sigma]), as well as 50 mM HEPES (pH 7.5), 20 mM MnCl2, 1 mg/ml BSA, a suitable amount of protease inhibitor cocktail (Complete EDTA free, Roche Ltd.), 100 ng/ml calyculin A, and 4 μg/ml cantharidin as other components.
The test compound was dissolved in dimethyl sulfoxide (DMSO) and serially diluted with 20 μm ATP solution (50 mM HEPES (pH 7.5), 20 μM ATP) to obtain concentrations required for the assay. 5 μl of this compound solution was added to each well of a 384-well small volume white plate manufactured by Greiner Bio-One Co., Ltd.
5 μl of the mTOR enzyme solution was added to the above-mentioned well containing the test compound and the resulting mixture was left standing for 3 hours room temperature to proceed an enzymatic reaction.
The same procedure was performed using a solution obtained by dissolving DMSO in 20 μM ATP solution as a positive control and a solution obtained by dissolving DMSO in 50 mM HEPES buffer (pH 7.5) as a negative control.
After the enzymatic reaction, 5 μl each of an europium solution (a solution obtained by dissolving anti-mouse IgG-cryptate [SCETI Medical Labo K.K.] and anti-phosphorylation S6K [Thr389] antibody [Cell Signaling Technology Inc.] in 50 mM HEPES [pH 7.5], 100 mM EDTA, and 1.5 mg/ml BSA) and an XL665 solution (a solution obtained by dissolving Streptavidin-XL 665 [SCETI Medical Labo K.K.] in 50 mM HEPES [pH 7.5], 100 mM EDTA, 0.8 M KF, and 1.5 mg/ml BSA) were added in this order and mixed and the resulting mixture was left standing overnight at 4° C. On the following day, the mixture was returned to room temperature and then irradiated with 337-nm excitation light and fluorescence at 620 and 665 nm was measured with RUBYstar (BMG LABTECH JAPAN Ltd.).
mTOR inhibitory activity (%) was calculated using the ratio calculated from the measured values as an indicator of enzyme activity. Here, the ratio was calculated by the following formula (1). Ratio=10,000×fluorescence at 665 nm/fluorescence at 620 nm (1)
mTOR enzyme inhibitory activity (%) was calculated by the following formula (2). mTOR enzyme inhibitory activity (%)=100×[(P−S)/(P−N)] (2) P: Ratio in positive control well N: Ratio in negative control well S: Ratio in well containing the test compound
Furthermore, an optimal curve was created using the concentrations of the serially diluted test compound solutions and mTOR enzyme inhibitory activity (%) at each concentration to obtain the concentration showing 50% inhibition as the IC50 value of mTOR enzyme inhibitory activity.

| GI50 [1] [nM] | GI50 [2] [nM] | pIC50 (PI3Kα) | GI50 [3] [nM] | pIC50 [4] | SMILES |
| --- | --- | --- | --- | --- | --- |
| ≤ 5000 | ≤ 5000 | > 8.00 | ≤ 5000 | 7.52 to 8.00 | CC(C)Cn1c(N2CCCN(S(C)(=O)=O)CC2)nc2c(N3CCOCC3)nc(-c3cnc(N)nc3)nc21 [Example 49, 5-{9-Isobutyl-8-[4-(methylsulfonyl)-1,4-diazepan-1-yl]-6-morpholin-4-yl-9H-purin-2-yl}pyrimidin-2-amine] |
| ≤ 5000 | ≤ 5000 | > 8.00 | ≤ 5000 | 7.00 to 7.52 | NCC(=O)N1CCN(c2nc3c(N4CCOCC4)nc(-c4cnc(N)nc4)nc3n2CC2CC2)CC1 [Example 42, 5-{8-[4-(Aminoacetyl)piperazin-1-yl]-9-(cyclopropylmethyl)-6-morpholin-4-yl-9H-purin-2-yl}pyrimidin-2-amine] |
| ≤ 5000 | ≤ 5000 | > 8.00 | ≤ 5000 | 7.52 to 8.00 | CN1CCN(c2nc3c(N4CCOCC4)nc(-c4cnc(N)nc4)nc3n2CC(F)(F)F)CC1 [Example 13, 5-[8-(4-Methylpiperazin-1-yl)-6-morpholin-4-yl-9-(2,2,2-trifluoroethyl)-9H-purin-2-yl]pyrimidin-2-amine] |
| ≤ 5000 | ≤ 5000 | 7.70 to 8.00 | ≤ 5000 | > 8.00 | CC(=O)N1CCN(c2nc3c(N4CCOCC4)nc(-c4cnc(N)nc4)nc3n2CC(F)(F)F)CC1 [Example 9, 5-[8-(4-Acetylpiperazin-1-yl)-6-morpholin-4-yl-9-(2,2,2-trifluoroethyl)-9H-purin-2-yl]pyrimidin-2-amine] |
| ≤ 5000 | ≤ 5000 | 7.30 to 7.70 | ≤ 5000 | 6.30 to 7.00 | Cc1nc(N)ncc1-c1nc(N2CCOCC2)c2nc(N3C[C@@H](C)N[C@@H](C)C3)n(CC3CC3)c2n1 [Example 15, 5-[9-(Cyclopropylmethyl)-8-(cis-3,5-dimethylpiperazin-1-yl)-6-morpholin-4-yl-9H-purin-2-yl]-4-methylpyrimidin-2-amine] |
| ≤ 5000 | ≤ 5000 | 7.00 to 7.30 | ≤ 5000 | 6.30 to 7.00 | CNc1ncc(-c2nc(N3CCOCC3)c3nc(N4CCOCC4)n(CC4CCOC4)c3n2)cn1 (centres unmarked) [Example 24, 5-[6,8-Dimorpholin-4-yl-9-(tetrahydrofuran-3-ylmethyl)-9H-purin-2-yl]-N-methylpyrimidin-2-amine] |
| ≤ 5000 | ≤ 5000 | 7.30 to 7.70 | ≤ 5000 | 7.00 to 7.52 | CNc1ncc(-c2nc(N3CCOCC3)c3nc(N4CCN(S(C)(=O)=O)CC4)n(CC4CCOC4)c3n2)cn1 (centres unmarked) [Example 25, N-Methyl-5-{8-[4-(methylsulfonyl)piperazin-1-yl]-6-morpholin-4-yl-9-(tetrahydrofuran-3-ylmethyl)-9H-purin-2-yl}pyrimidin-2-amine] |
| – | – | 7.70 to 8.00 | – | – | Cc1nc(N)ncc1-c1nc(N2CCOCC2)c2nc(N3CCC(C(N)=O)CC3)n(CC3CC3)c2n1 [Example 47, 1-[2-(2-Amino-4-methylpyrimidin-5-yl)-9-(cyclopropylmethyl)-6-morpholin-4-yl-9H-purin-8-yl]piperidine-4-carboxamide methanesulfonate] |
| ≤ 5000 | ≤ 5000 | > 8.00 | ≤ 5000 | 7.52 to 8.00 | Nc1ncc(-c2nc(N3CCOCC3)c3nc(N4CCN(C(=O)Cn5ccnc5)CC4)n(CC4CC4)c3n2)cn1 [Example 56, 5-{9-(Cyclopropylmethyl)-8-[4-(1H-imidazol-1-ylacetyl)piperazin-1-yl]-6-morpholin-4-yl-9H-purin-2-yl}pyrimidin-2-amine] |
| ≤ 5000 | ≤ 5000 | 7.70 to 8.00 | ≤ 5000 | 7.52 to 8.00 | CC(C)Cn1c(N2CCN[C@@H](C)C2)nc2c(N3CCOCC3)nc(-c3cnc(N)nc3)nc21 [Example 51, 5-{9-Isobutyl-8-[(3S)-3-methylpiperazin-1-yl]-6-morpholin-4-yl-9H-purin-2-yl}pyrimidin-2-amine] |
| – | – | – | – | ≤ 6.30 | Cc1nc(N(C)C)ncc1-c1nc(N2CCOCC2)c2nc(N3CCN(S(C)(=O)=O)CC3)n(CC3CC3)c2n1 [Example 44, 5-{9-(Cyclopropylmethyl)-8-[4-(methylsulfonyl)piperazin-1-yl]-6-morpholin-4-yl-9H-purin-2-yl}-N,N,4-trimethylpyrimidin-2-amine] |
